# Measured values as given in ChEMBL document CHEMBL4411344, “Synthesis and biological evaluation of new long-chain squaramides as anti-chagasic agents in the BALB/c mouse model” (Bioorg Med Chem, 2019).
# Active and inactive are the calls of the source. The rule behind the calls is not given here.
# How the values were obtained:
# [1] = Hepatotoxicity in Balb/c mouse infected with Trypanosoma cruzi MHOM/Pe/2011/Arequipa DTU 5 trypomastigotes assessed as increase in ratio of serum AST to GOT level at 20 mg/kg, po once daily for 5 consecutive days starting from day 75 post infection measured on day 127 post infection relative to control; assay type: toxicity, organism-based; conditions: in vivo
# [2] = (§1) Hepatotoxicity in Balb/c mouse infected with Trypanosoma cruzi MHOM/Pe/2011/Arequipa DTU 5 trypomastigotes assessed as increase in total bilirubin level at 20 mg/kg, po once daily for 5 consecutive days starting from day 10 post infection measured on day 16 post infection relative to control; assay type: toxicity, organism-based; conditions: in vivo
# Trypanosoma cruzi [3] = test: Antitrypanosomal activity against Trypanosoma cruzi MHOM/Pe/2011/Arequipa DTU 5 epimastigotes assessed as effect on parasite glycolytic pathway by measuring decrease in acetate excretion at IC25 after 72 hrs by 1H NMR method; assay type: functional, organism-based
# Trypanosoma cruzi [4] = test: Antitrypanosomal activity against Trypanosoma cruzi MHOM/Pe/2011/Arequipa DTU 5 epimastigotes assessed as effect on parasite glycolytic pathway by measuring decrease in ethanol excretion at IC25 after 72 hrs by 1H NMR method; assay type: functional, organism-based
# Trypanosoma cruzi [5] = test: Trypanocidal activity against Trypanosoma cruzi MHOM/Pe/2011/Arequipa DTU 5 amastigotes infected in African green monkey Vero cells assessed as reduction in infected cells at <= 12 uM after 72 hrs by Giemsa-staining based assay; assay type: functional, organism-based
# [6] = Nephrotoxicity in Balb/c mouse infected with Trypanosoma cruzi MHOM/Pe/2011/Arequipa DTU 5 trypomastigotes assessed as decrease in serum uric acid level at 20 mg/kg, po once daily for 5 consecutive days starting from day 10 post infection measured on day 127 post infection relative to control; assay type: toxicity, organism-based; conditions: in vivo
# [7] = as §1, with “change” for “increase”, “75” for “10”, “127” for “16”, “(reference value: 0.23 mg/dl)” for “relative to control”; assay type: toxicity, organism-based; conditions: in vivo
# Trypanosoma cruzi [8] = test: Antitrypanosomal activity against Trypanosoma cruzi MHOM/Pe/2011/Arequipa DTU 5 epimastigotes assessed as effect on parasite glycolytic pathway by measuring increase in acetate excretion at IC25 after 72 hrs by 1H NMR method; assay type: functional, organism-based
# Trypanosoma cruzi [9] = test: Antitrypanosomal activity against Trypanosoma cruzi MHOM/Pe/2011/Arequipa DTU 5 epimastigotes assessed as effect on parasite glycolytic pathway by measuring increase in pyruvate excretion at IC25 after 72 hrs by 1H NMR method; assay type: functional, organism-based
# Trypanosoma cruzi [10] = test: Antitrypanosomal activity against Trypanosoma cruzi MHOM/Pe/2011/Arequipa DTU 5 epimastigotes assessed as effect on parasite glycolytic pathway by measuring increase in D-lactate excretion at IC25 after 72 hrs by 1H NMR method; assay type: functional, organism-based
# Trypanosoma cruzi [11] = test: Antitrypanosomal activity against Trypanosoma cruzi MHOM/Pe/2011/Arequipa DTU 5 epimastigotes assessed as effect on parasite glycolytic pathway by measuring increase in ethanol excretion at IC25 after 72 hrs by 1H NMR method; assay type: functional
smiles,measurement,setting,value
O=C(Cn1ccnc1[N+](=O)[O-])NCc1ccccc1 [BENZNIDAZOLE],Activity,[1],10 to 20 U/L
same,Activity,[2],20 to 30 mg/dL
CCCCCCNc1c(N(C)CCCN(C)C)c(=O)c1=O,Activity,Trypanosoma cruzi [3],Active
same,Activity,Trypanosoma cruzi [4],Active
same,Activity,Trypanosoma cruzi [5],inactive
same,Activity,[6],10 to 20 mg/dL
same,Activity,[7],0.2 mg/dL
CCCCCCCCCCCCCCCCNc1c(N(C)CCCN(C)C)c(=O)c1=O,Activity,Trypanosoma cruzi [8],Active
same,Activity,Trypanosoma cruzi [9],Active
same,Activity,Trypanosoma cruzi [10],Active
same,Activity,Trypanosoma cruzi [11],51%
